This experiment concerns the target T1, met (HGF receptor) in human gastric cancer cells MKN45 (Homo sapiens, UniProt P08581).
T1 construct: endogenous in cells; host or cells: MKN45 human gastric cancer cells
The experiment is described as follows: Inhibitory activity against met-autophosphorylation using ELISA method (2), MKN45 cells, HGF-independent. The experiment is classed as cell-based. The method in brief: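 Met autophosphorylation was read by sandwich ELISA: phosphotyrosine capture (PY20), anti-HGF receptor detection, peroxidase read-out at 450 nm. Lysates came from MKN45 gastric cancer cells kept in 0.1% FCS RPMI and treated 1 h at 37 °C with test compound, with no added HGF.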

As a reminder, the IC50 is the midpoint of a concentration-inhibition curve. Read a low IC50 as inhibition by little substance.

T1 sequence (P08581 25-1390): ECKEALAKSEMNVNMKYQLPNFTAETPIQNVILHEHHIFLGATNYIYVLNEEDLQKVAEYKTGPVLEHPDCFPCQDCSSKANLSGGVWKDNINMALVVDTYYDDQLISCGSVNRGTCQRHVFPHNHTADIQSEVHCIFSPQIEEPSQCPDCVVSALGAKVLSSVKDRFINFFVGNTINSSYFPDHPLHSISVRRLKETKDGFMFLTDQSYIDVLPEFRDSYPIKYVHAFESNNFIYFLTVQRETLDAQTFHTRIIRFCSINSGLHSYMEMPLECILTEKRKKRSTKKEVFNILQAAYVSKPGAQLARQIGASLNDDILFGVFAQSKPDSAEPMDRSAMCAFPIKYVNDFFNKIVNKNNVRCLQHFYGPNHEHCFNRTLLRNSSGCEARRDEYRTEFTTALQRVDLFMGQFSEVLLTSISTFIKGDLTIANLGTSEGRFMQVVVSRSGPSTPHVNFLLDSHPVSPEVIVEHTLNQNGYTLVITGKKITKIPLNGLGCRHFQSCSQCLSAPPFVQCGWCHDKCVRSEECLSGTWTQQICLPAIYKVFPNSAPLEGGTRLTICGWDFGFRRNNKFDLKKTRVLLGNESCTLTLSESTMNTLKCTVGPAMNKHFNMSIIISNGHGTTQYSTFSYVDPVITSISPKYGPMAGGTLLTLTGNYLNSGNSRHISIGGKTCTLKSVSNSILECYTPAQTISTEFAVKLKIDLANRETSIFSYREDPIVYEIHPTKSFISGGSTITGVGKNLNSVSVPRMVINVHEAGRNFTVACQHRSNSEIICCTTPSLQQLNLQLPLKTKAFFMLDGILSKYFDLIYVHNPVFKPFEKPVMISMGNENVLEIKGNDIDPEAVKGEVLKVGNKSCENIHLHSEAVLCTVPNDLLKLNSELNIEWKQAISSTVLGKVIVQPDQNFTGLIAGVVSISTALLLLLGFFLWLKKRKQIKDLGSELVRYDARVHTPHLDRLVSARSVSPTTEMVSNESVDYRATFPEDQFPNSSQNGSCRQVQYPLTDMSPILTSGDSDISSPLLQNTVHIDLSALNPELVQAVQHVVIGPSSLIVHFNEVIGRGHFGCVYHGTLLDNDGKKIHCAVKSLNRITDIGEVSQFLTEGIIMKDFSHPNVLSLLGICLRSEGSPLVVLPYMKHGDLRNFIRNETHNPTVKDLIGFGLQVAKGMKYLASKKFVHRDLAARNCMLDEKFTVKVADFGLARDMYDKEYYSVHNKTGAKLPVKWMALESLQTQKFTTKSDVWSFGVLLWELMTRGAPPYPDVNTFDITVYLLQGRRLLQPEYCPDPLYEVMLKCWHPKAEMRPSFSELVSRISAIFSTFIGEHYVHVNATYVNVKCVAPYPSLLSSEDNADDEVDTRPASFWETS

As for `COc1cc2nccc(Oc3ccc(NC(=S)NC(=O)Cc4cc(F)cc(F)c4)cc3F)c2cc1OC` [Example 197, 1-[2-(3,5-difluorophenyl)acetyl]-3-[4-(6,7-dimethoxyquinolin-4-yloxy)-3-fluorophenyl]thiourea], the IC50 came to 284 nM.

`COc1cc2nccc(Oc3ccc(NC(=S)NC(=O)Cc4ccc(F)c(F)c4)c(F)c3)c2cc1OC` [Example 198, 1-[2-(3,4-difluorophenyl)acetyl]-3-[4-(6,7-dimethoxyquinolin-4-yloxy)-2-fluorophenyl]thiourea] registered a half-maximal inhibitory concentration (IC50) of 294 nM.

Molecule `COc1cc2nccc(Oc3ccc(NC(=S)NC(=O)Cc4ccc(F)c(F)c4)cc3F)c2cc1OC` [Example 199, 1-[2-(3,4-difluorophenyl)acetyl]-3-[4-(6,7-dimethoxyquinolin-4-yloxy)-3-fluorophenyl]thiourea] showed an IC50 of 241 nM.

For the molecule `COc1cc2nccc(Oc3ccc(NC(=S)NC(=O)Cc4ccccc4C(F)(F)F)c(F)c3)c2cc1OC` [Example 200, 1-[4-(6,7-dimethoxyquinolin-4-yloxy)-2-fluorophenyl]-3-[2-(2-trifluoromethylphenyl)acetyl]-thiourea], the IC50 was determined as 305 nM.

For the molecule `COc1cc2nccc(Oc3ccc(NC(=S)NC(=O)Cc4ccccc4C(F)(F)F)cc3F)c2cc1OC` [Example 201, 1-[4-(6,7-dimethoxyquinolin-4-yloxy)-3-fluorophenyl]-3-[2-(2-trifluoromethylphenyl)acetyl]-thiourea], it took 226 nM to reach half-maximal inhibition (IC50).

Regarding `COc1cc2nccc(Oc3ccc(NC(=S)NC(=O)Cc4cccc(C(F)(F)F)c4)c(F)c3)c2cc1OC` [Example 202, 1-[4-(6,7-dimethoxyquinolin-4-yloxy)-2-fluorophenyl]-3-[2-(3-trifluoromethylphenyl)acetyl]-thiourea], 642 nM corresponded to half-maximal inhibition (IC50).

Consider `COc1cc2nccc(Oc3ccc(NC(=S)NC(=O)Cc4cccc(C(F)(F)F)c4)cc3F)c2cc1OC` [Example 203, 1-[4-(6,7-dimethoxyquinolin-4-yloxy)-3-fluorophenyl]-3-[2-(3-trifluoromethylphenyl)acetyl]-thiourea], for which half-maximal inhibition (IC50) required 281 nM.

Take `COc1cc2nccc(Oc3ccc(NC(=S)NC(=O)Cc4c(F)ccc(F)c4F)cc3)c2cc1OC` [Example 204, 1-[4-(6,7-dimethoxyquinolin-4-yloxy)phenyl]-3-[2-(2,3,6-trifluorophenyl)acetyl]thiourea]: half-maximal inhibition (IC50) was put at 321 nM.

The molecule `COc1cc2nccc(Oc3ccc(NC(=S)NC(=O)Cc4c(F)ccc(F)c4F)c(F)c3)c2cc1OC` [Example 205, 1-[4-(6,7-dimethoxyquinolin-4-yloxy)-2-fluorophenyl]-3-[2-(2,3,6-trifluorophenyl)acetyl]-thiourea] came in with a half-inhibitory concentration (IC50) of 265 nM.

In the case of `COc1cc2nccc(Oc3ccc(NC(=S)NC(=O)Cc4c(F)ccc(F)c4F)cc3F)c2cc1OC` [Example 206, 1-[4-(6,7-dimethoxyquinolin-4-yloxy)-3-fluorophenyl]-3-[2-(2,3,6-trifluorophenyl)acetyl]-thiourea], 444 nM corresponded to half-maximal inhibition (IC50).

In turn, `COc1cc2nccc(Oc3ccc(NC(=S)NC(=O)Cc4c(F)ccc(F)c4F)cc3Cl)c2cc1OC` [Example 207, 1-[3-chloro-4-(6,7-dimethoxyquinolin-4-yloxy)phenyl]-3-[2-(2,3,6-trifluorophenyl)acetyl]-thiourea] gave an IC50 of 300 nM.

In turn, `COc1cc2nccc(Oc3ccc(NC(=S)NC(=O)Cc4c(Cl)cccc4Cl)c(F)c3)c2cc1OC` [Example 208, 1-[2-(2,6-dichlorophenyl)acetyl]-3-[4-(6,7-dimethoxyquinolin-4-yloxy)-2-fluorophenyl]thiourea] returned an IC50 of 258 nM.

With `CCCCNC(=O)CC(=O)Nc1ccc(Oc2ccnc3cc(OC)c(OC)cc23)cc1` [Example 209, N-butyl-N′-[4-(6,7-dimethoxyquinolin-4-yloxy)phenyl]malonamide], the concentration for half-maximal inhibition (IC50) was 928 nM.

In turn, `COc1cc2nccc(Oc3ccc(NC(=O)CC(=O)Nc4cccc(Cl)c4)cc3)c2cc1OC` [Example 210, N-(3-chlorophenyl)-N′-[4-(6,7-dimethoxy-quinolin-4-yloxy)phenyl]malonamide] displayed an IC50 of 228 nM.

Source of the values: patent US8324245B2, “Quinoline derivative and quinazoline derivative inhibiting self-phosphorylation of hepatocytus proliferator receptor, and medicinal composition containing the same” (Kyowa Hakko Kirin Co., Ltd., priority 2001, dated 2012).
